Laboratory results taken from EPA's ToxRefDB 2.

What was measured:
[1] = test system: rat; conditions: Subchronic oral toxicity in rodents, sprague dawley, Feed, dose end: 13 week, group: systemic
[2] = test system: dog; conditions: Chronic toxicity; beagle; Oral; Capsule; dose end: 52 week; group: systemic; systemic / clinical chemistry / cholesterol / cholesterol + systemic / hematology / lymphocyte / lymphocyte + systemic / in life observation…
[3] = test system: rat; conditions: Multigenerational reproductive toxicity study, other, Oral, Feed, dose end: 2 generation
[4] = test system: rat; conditions: Combined chronic toxicity/carcinogenicity; sprague dawley; Oral; Feed; dose end: 104 week; group: systemic; systemic / in life observation / body weight / body weight
[5] = test system: rabbit; conditions: Prenatal developmental toxicity study; new zealand white; Oral; Gavage/Intubation; dose end: 19 GD; group: maternal; reproductive / reproductive performance / postimplantation loss / postimplantation loss + reproductive / reproductive performance / …
[6] = test system: mouse; conditions: Carcinogenicity; cd1; Oral; Feed; dose end: 78 week; group: systemic; systemic / in life observation / body weight / body weight gain + systemic / pathology microscopic / epididymis / concretion + systemic / …
[7] = test system: rat; conditions: Prenatal developmental toxicity study, other, Oral, Gavage/Intubation, dose end: 15 GD
[8] = test system: rat; conditions: Prenatal developmental toxicity study; sprague dawley; Oral; Gavage/Intubation; dose end: 17 GD; group: maternal; systemic / in life observation / body weight / body weight + systemic / in life observation / body weight / body weight gain + systemic / in…
[9] = test system: rat; conditions: Prenatal developmental toxicity study; sprague dawley; Oral; Gavage/Intubation; dose end: 17 GD; group: maternal; systemic / in life observation / body weight / body weight + systemic / in life observation / body weight / body weight gain
[10] = test system: rabbit; conditions: Prenatal developmental toxicity study, new zealand white, Oral, Gavage/Intubation, dose end: 18 GD
[11] = test system: rat; conditions: Sub-acute repeat dose toxicity, sprague dawley, Oral, Feed, dose end: 28 day, group: systemic
[12] = test system: rat; conditions: Other (NonGuideline or Guideline Not Listed); sprague dawley; Oral; Gavage/Intubation; dose end: 7 day; group: cannot be grouped; systemic / clinical chemistry / alanine aminotransferase (alt/sgpt) / alanine aminotransferase (alt/sgpt) + systemic / clinical chemistry / …
[13] = test system: dog; conditions: Subchronic oral toxicity in nonrodent, beagle, Feed, dose end: 13 week, group: systemic, systemic / in life observation / body weight / body weight gain + systemic / in life observation / food consumption / food consumption
[14] = test system: rat; conditions: Subchronic oral toxicity in rodents, other, Feed, dose end: 13 week, group: systemic, systemic / in life observation / body weight / body weight gain + systemic / pathology microscopic / liver / infiltration cellular + …
[15] = test system: rat; conditions: Prenatal developmental toxicity study, other, Oral, Gavage/Intubation, dose end: 15 GD; remark: listed apart in the source
[16] = test system: rat; conditions: Chronic toxicity, other, Oral, Gavage/Intubation, dose end: 91 week, group: systemic
[17] = test system: mouse; conditions: Carcinogenicity, cd1, Oral, Water, dose end: 104 week, group: systemic
[18] = test system: dog; conditions: Chronic toxicity, beagle, Oral, Gavage/Intubation, dose end: 52 week, group: systemic
[19] = test system: rat; conditions: Prenatal developmental toxicity study, other, Oral, Gavage/Intubation, dose end: 15 GD; remark: listed apart in the source
[20] = test system: rabbit; conditions: Prenatal developmental toxicity study, new zealand white, Oral, Gavage/Intubation, dose end: 19 GD
[21] = test system: rat; conditions: Multigenerational reproductive toxicity study, other, Oral, Gavage/Intubation, dose end: 2 generation
[22] = test system: rabbit; conditions: Prenatal developmental toxicity study, new zealand white, Oral, Gavage/Intubation, dose end: 18 GD; remark: listed apart in the source
[23] = test system: mouse; conditions: Carcinogenicity, cd1, Oral, Feed, dose end: 98 week, group: systemic
[24] = systemic / clinical chemistry / alanine aminotransferase (alt/sgpt) / alanine aminotransferase (alt/sgpt) + systemic / clinical chemistry / …
[25] = group: offspring, systemic / in life observation / body weight / offspring (pup) weight
[26] = group: parental, systemic / in life observation / body weight / body weight gain + systemic / in life observation / food consumption / food consumption
[27] = group: developmental, developmental / developmental malformation / bone / bipartite ossification + developmental / developmental malformation / bone / cervical + …
[28] = group: maternal, reproductive / reproductive performance / postimplantation loss / postimplantation loss + reproductive / reproductive performance / …
[29] = group: developmental, systemic / in life observation / body weight / fetal weight
[30] = group: maternal, systemic / in life observation / clinical signs / defecation + systemic / in life observation / mortality / mortality
[31] = group: maternal, systemic / in life observation / clinical signs / defecation + systemic / in life observation / mortality / mortality + systemic / in life …
[32] = systemic / clinical chemistry / lactic acid dehydrogenase (ldh) / lactic acid dehydrogenase (ldh) + systemic / clinical chemistry / sorbitol…
[33] = group: developmental, developmental / developmental malformation / bone / unossified + developmental / developmental malformation / bone / full supernumerary + …
[34] = group: maternal, systemic / in life observation / body weight / body weight gain
[35] = group: maternal, systemic / in life observation / body weight / body weight gain + systemic / in life observation / body weight / body weight + systemic / in…
[36] = systemic / clinical chemistry / glucose / glucose
[37] = systemic / in life observation / body weight / body weight gain
[38] = systemic / in life observation / mortality / mortality + systemic / pathology microscopic / kidney / degeneration + systemic / pathology …
[39] = systemic / clinical chemistry / cholesterol / cholesterol + systemic / hematology / mean corpuscular (cell) volume (mcv) / mean corpuscular…
[40] = systemic / hematology / mean corpuscular hemoglobin (mch) / mean corpuscular hemoglobin (mch)
[41] = group: developmental, developmental / developmental malformation / bone / bipartite ossification + developmental / developmental malformation / bone / thickened…
[42] = group: developmental, developmental / developmental malformation / brain / [other] + developmental / developmental malformation / general / crown-rump length + …
[43] = group: maternal, systemic / organ weight / uterus / nos
[44] = group: offspring, developmental / offspring survival late / viability index / viability index + systemic / in life observation / body weight / offspring (pup…
[45] = group: parental, systemic / in life observation / body weight / body weight + systemic / in life observation / body weight / body weight gain + systemic / in…
[46] = group: developmental, developmental / developmental malformation / brain / misshapen cerebrum + developmental / developmental malformation / eye / malpositioned…
[47] = systemic / pathology microscopic / liver / adenoma + systemic / pathology microscopic / liver / adenoma/carcinoma combined

COC(=O)c1c(Cl)nn(C)c1S(=O)(=O)NC(=O)Nc1nc(OC)cc(OC)n1 [Halosulfuron-methyl]
LOAEL [1, 24]: 497 mg/kg/day
NEL [1, 24]: 28.8 mg/kg/day
NOAEL [1, 24]: 116 mg/kg/day
LEL ([1]; systemic / pathology microscopic / kidney / hemosiderosis): 116 mg/kg/day
LEL [2]: 10 mg/kg/day
LOAEL [2]: 10 mg/kg/day
NEL [2]: 1 mg/kg/day
NOAEL [2]: 1 mg/kg/day
LEL [3, 25]: 61 mg/kg/day
LOAEL [3, 25]: > 274 mg/kg/day
NEL [3, 25]: 7.4 mg/kg/day
NOAEL [3, 25]: ≥ 274 mg/kg/day
LEL ([3]; group: parental, systemic / in life observation / body weight / body weight): 69.7 mg/kg/day
NEL ([3]; group: parental, systemic / in life observation / body weight / body weight + systemic / in life observation / food consumption / food consumption): 8.9 mg/kg/day
LOAEL [3, 26]: 223 mg/kg/day
NOAEL [3, 26]: 50.4 mg/kg/day
LEL [4]: 139 mg/kg/day
LOAEL [4]: 139 mg/kg/day
NEL [4]: 56.3 mg/kg/day
NOAEL [4]: 56.3 mg/kg/day
LEL [5]: 150 mg/kg/day
LOAEL [5]: 150 mg/kg/day
NEL [5]: 50 mg/kg/day
NOAEL [5]: 50 mg/kg/day
LEL [6]: 972 mg/kg/day
LOAEL [6]: 972 mg/kg/day
NEL [6]: 410 mg/kg/day
NOAEL [6]: 410 mg/kg/day
LEL [7, 27]: 750 mg/kg/day
LOAEL [7, 27]: 750 mg/kg/day
NEL [7, 27]: 250 mg/kg/day
NOAEL [7, 27]: 250 mg/kg/day
LEL [7, 28]: 750 mg/kg/day
LOAEL [7, 28]: 750 mg/kg/day
NEL [7, 28]: 250 mg/kg/day
NOAEL [7, 28]: 250 mg/kg/day

NCc1cccc(C2CCN(C(=O)c3ccc(C#Cc4ccccc4F)o3)CC2)c1 [AVE5638]
LEL [8]: 40 mg/kg/day
LOAEL [8]: 40 mg/kg/day
NEL [8]: 5 mg/kg/day
NOAEL [8]: 5 mg/kg/day
LEL [9]: 40 mg/kg/day
LOAEL [9]: 40 mg/kg/day
NEL [9]: 5 mg/kg/day
NOAEL [9]: 5 mg/kg/day
LEL [10, 29]: 225 mg/kg/day
LOAEL [10, 29]: 225 mg/kg/day
NEL [10, 29]: 100 mg/kg/day
NOAEL [10, 29]: 100 mg/kg/day
LEL [10, 30]: 100 mg/kg/day
LOAEL [10, 30]: 100 mg/kg/day
NEL [10, 31]: 25 mg/kg/day
NOAEL [10, 31]: 25 mg/kg/day

ClC(Cl)(Cl)c1ccccc1 [Benzotrichloride]
LOAEL [11, 32]: > 25 mg/kg/day
NEL [11, 32]: 0.025 mg/kg/day
NOAEL [11, 32]: ≥ 25 mg/kg/day
LEL ([11]; systemic / clinical chemistry / sorbitol dehydrogenase / sorbitol dehydrogenase): 0.25 mg/kg/day

Fc1ccccc1[C@@H](F)COC1CCC(Nc2ncnc3[nH]ncc23)CC1 (some centres undefined) [MK-968]
LEL [12]: 300 mg/kg/day
LOAEL [12]: > 750 mg/kg/day
NEL [12]: 10 mg/kg/day
NOAEL [12]: ≥ 750 mg/kg/day

O=C(O)COc1ccc(Cl)cc1 [4-Chlorophenoxyacetic acid]
LEL [13]: 17.4 mg/kg/day
LOAEL [13]: 17.4 mg/kg/day
NEL [13]: 4.05 mg/kg/day
NOAEL [13]: 4.05 mg/kg/day
LEL [14]: 517 mg/kg/day
LOAEL [14]: 517 mg/kg/day
NEL [14]: 132 mg/kg/day
NOAEL [14]: 132 mg/kg/day
LOAEL ([15]; group: developmental, developmental / developmental malformation / bone / unossified): 300 mg/kg/day
LEL ([15]; group: developmental, developmental / developmental malformation / bone / unossified + developmental / developmental malformation / bone / full supernumerary): 300 mg/kg/day
NEL [15, 33]: 150 mg/kg/day
NOAEL [15, 33]: 150 mg/kg/day
LEL [15, 34]: 300 mg/kg/day
LOAEL [15, 34]: 300 mg/kg/day
NEL [15, 35]: 150 mg/kg/day
NOAEL [15, 35]: 150 mg/kg/day

N#CN [Cyanamide]
LEL [16, 36]: 1 mg/kg/day
NEL [16, 36]: < 1 mg/kg/day
LOAEL ([16]; systemic / in life observation / body weight / body weight gain + systemic / pathology microscopic / thyroid gland / colloid content): 7.5 mg/kg/day
NOAEL ([16]; systemic / in life observation / body weight / body weight gain + systemic / pathology microscopic / thyroid gland / colloid content + …): 2.5 mg/kg/day
LEL [17, 37]: 5 mg/kg/day
NEL [17, 37]: < 5 mg/kg/day
LOAEL [17, 38]: 16.9 mg/kg/day
NOAEL [17, 38]: 6.9 mg/kg/day
LOAEL [18, 39]: 2 mg/kg/day
NOAEL [18, 39]: 0.4 mg/kg/day
LEL [18, 40]: 0.4 mg/kg/day
NEL [18, 40]: < 0.4 mg/kg/day
LEL [19, 41]: 90 mg/kg/day
LOAEL [19, 41]: 90 mg/kg/day
NEL [19, 41]: 30 mg/kg/day
NOAEL [19, 41]: 30 mg/kg/day
LEL [19, 34]: 10 mg/kg/day
LOAEL [19, 34]: 10 mg/kg/day
NEL [19, 34]: < 10 mg/kg/day
NOAEL [19, 34]: < 10 mg/kg/day
LOAEL [20, 42]: 36 mg/kg/day
NEL [20, 42]: 4 mg/kg/day
NOAEL [20, 42]: 12 mg/kg/day
LEL ([20]; group: developmental, developmental / developmental malformation / eye / retina fold): 12 mg/kg/day
LOAEL [20, 34]: 12 mg/kg/day
LEL [20, 43]: 4 mg/kg/day
NEL [20, 43]: < 4 mg/kg/day
NOAEL ([20]; group: maternal, systemic / organ weight / uterus / nos + systemic / in life observation / body weight / body weight gain + reproductive / reproductive …): 4 mg/kg/day
LEL [21, 44]: 1.25 mg/kg/day
LOAEL [21, 44]: 1.25 mg/kg/day
NEL [21, 44]: < 1.25 mg/kg/day
NOAEL [21, 44]: < 1.25 mg/kg/day
LEL [21, 45]: 3.75 mg/kg/day
LOAEL [21, 45]: 3.75 mg/kg/day
NEL [21, 45]: 1.25 mg/kg/day
NOAEL [21, 45]: 1.25 mg/kg/day

CC(Oc1cccc(Cl)c1)C(=O)O (centres undefined) [Cloprop]
LEL [22, 46]: 200 mg/kg/day
LOAEL [22, 46]: 200 mg/kg/day
NEL [22, 46]: 100 mg/kg/day
NOAEL [22, 46]: 100 mg/kg/day
LEL [22, 34]: 200 mg/kg/day
LOAEL [22, 34]: 200 mg/kg/day
NEL [22, 34]: 100 mg/kg/day
NOAEL [22, 34]: 100 mg/kg/day
LEL [23, 47]: 98 mg/kg/day
NEL [23, 47]: < 98 mg/kg/day
LOAEL ([23]; systemic / pathology microscopic / liver / hypertrophy): 402 mg/kg/day
NOAEL ([23]; systemic / pathology microscopic / liver / hypertrophy + systemic / pathology microscopic / liver / adenoma + systemic / pathology …): 98 mg/kg/day
